Two compounds from publication PMC12693135, “Ocular Toxicity and Mechanistic Investigation for Berberine and Its Metabolite Berberrubine on Zebrafish” (Molecules, 2025) can be followed below.

The nature of data set [1]: MTT cytotoxicity assay on HCE-T cells. It counts as cell-based, human. The following applies: human, HCE-T human corneal epithelial cells; HCE-T cells, 24 h incubation. As for the experimental part: (§1) The human corneal epithelial cell line HCE-T (Cellosaurus accession: CVCL_1272, RRID: CVCL_1272, RCB: RCB2280) was purchased from Procell Life Science and Technology Co., Ltd. (Wuhan, China). […] were cultured in high-glucose Dulbecco’s Modified Eagle Medium (DMEM), which was purchased from Procell Life Science and Technology Co., Ltd. (Wuhan, China). The high-glucose DMEM was DMEM basic medium supplemented with 15% fetal bovine serum (Procell), 1% penicillin/streptomycin (Procell), 5 μg/mL insulin, and 10 ng/mL human epidermal growth factor (Procell).
(§2) HCE-T cells were seeded in 96-well plates (8 × 10^3 cells/well, 100 μL medium) and cultured overnight at 37 °C, 5% CO2 for adhesion. BBR or its metabolites at various concentrations (BBR and M3 at the concentrations of 31.25, 62.5, 125, 250 and 500 µM, M1 and M4 at the concentrations of 25, 50, 100, 200 and 400 µM) in 0.5% DMSO were added and incubated for 24 h, with 0.5% DMSO in culture medium as the vehicle control. Subsequently, 20 μL MTT (5 mg/mL) was added to each well and the cells were cultured at 37 °C for 4 h. Then, the culture medium was removed, and 150 μL DMSO was added to dissolve formazan crystals and the absorbance at 570 nm was measured on a Synergy H1 multifunctional microplate reader (Biotek, Winooski, VT, USA). The IC50 values of test compounds were calculated by Graphpad Prism 8.5 (GraphPad Software Co., San Diego, CA, USA).

The subject of data set [2] is human corneal epithelial (HCE-T) cell line. Put plainly: MTT cytotoxicity assay on HCE-T cells. It counts as cell-based. Here is the method: as §1, §2

Each structure is given as a SMILES string. Bounds are passed on as bounds.

Take `COc1cc2c(cc1O)CC[n+]1cc3c(OC)c(OC)ccc3cc1-2` [M4, jatrorrhizine]: the half-inhibitory concentration (IC50) at 24 h in data set [1] is greater than 400 µM. For the compound `COc1ccc2cc3[n+](cc2c1OC)CCc1cc(O)c(O)cc1-3` [M3, demethyleneberberine], in data set [2], the half-maximal inhibitory concentration (IC50) was greater than 400 µM.
